Laboratory results as given in patent US10295463B2, “Device and method for investigating one or a plurality of phase objects” (Ludwig-Maximilians-Universität München, priority 2013, dated 2019).

Tests used:
bacteria = assay: Bacteria population growth and activity from intensity of a diffraction maximum, treatment with antibiotic; assay type: cell-based
Text: In FIG. 16, it can be seen that the intensity of the diffraction maximum decreases with time for the bacteria sample. This decrease is due to an increasing division of the bacteria, i.e. a continuous increase in the bacteria population or, in other words, an increase in the number of phase objects which increasingly disturb the constructive interference in the diffraction maximum and thereby lead to a decrease in the intensity. In FIG. 16, it can be further observed that with increasing time, the intensity increasingly fluctuates, which can be attributed to the activity of the cells.
Further shown in FIG. 17 is an exemplary enlarged section of the course of the measurement signals, in which the fluctuations of the signal can be clearly seen. By fitting a growth curve, which includes the division rate as a parameter, the division rate of the bacteria can be discerned from the signal.
It can be seen from FIG. 18 that the standard deviation increases with time. This standard deviation represents fluctuations of the signals on a short time scale which in turn are a measure for the activity of the bacteria, which will be explained in more detail with reference to FIG. 19 below.

[1] = test system: Dictyostelium discoideum cell; assay: Cell motility by Fourier analysis of the temporal diffraction signal when an active substance is added; assay type: cell-based; conditions: active substance added to the medium in the sample chamber at time t=0; FIG. 14
Text: In FIG. 11b, a three-dimensional view is shown top left, a plan view is shown top right, and a cross section of the sample holder G is shown at the bottom. […] A surrounding medium or an active substance can be introduced into the receptacle, which is formed by the sample chamber. A sensor with a grid, which is arranged on a substrate, is located within the sample chamber. […] Furthermore, biological cells are located on the grid, where the reaction of the cells to the active substances is to be investigated. In particular, in the illustrated case is to be investigated how the motility of the cells changes due to the addition of the active substance.
In this case, the time axis runs from top to bottom and the frequency axis runs from left to right. At time t=0, the active substance, Latruncalin A, is added to the medium located in the sample chamber.

**Q.** What does the source list for `CC1(C)S[C@@H]2[C@H](NC(=O)[C@H](N)c3ccccc3)C(=O)N2[C@H]1C(=O)O` [AMP]?
**A.** normalized intensity of the diffraction maximum as a function of time (bacteria; 4 mg/l applied at 60 min., FIG. 19 row 3 column c): the intensity starts increasing again after 90 min.; mean value of the standard deviation of the intensity as a function of time (bacteria; 4 mg/l applied at 60 min., FIG. 19 row 3 column d): a rapid decrease in the standard deviation, which is even more pronounced than in the second row; normalized intensity of the diffraction maximum as a function of time (bacteria; double dose of 2 mg/1, FIG. 19 row 2 column c): the decrease in the normalized intensity flattens at 120 min.; mean value of the standard deviation of the intensity as a function of time (bacteria; double dose of 2 mg/1, FIG. 19 row 2 column d): at 120 min. the standard deviation decreases significantly, which is again indicative of cell death; normalized intensity of the diffraction maximum as a function of time (bacteria; treated after 60 min. of growth, concentration 1 mg/l, FIG. 19 row 1 column c): the normalized intensity decreases, which indicates a further growth of the bacteria population; mean value of the standard deviation of the intensity as a function of time (bacteria; treated after 60 min. of growth, concentration 1 mg/l, FIG. 19 row 1 column d): the standard deviation reaches a plateau at 120 min. and decreases thereafter, which suggests that the bacteria cells die

**Q.** For `C/C1=C/C(=O)O[C@@H]2C[C@@H](CC[C@H](C)/C=C\C=C\CC1)O[C@@](O)([C@@H]1CSC(=O)N1)C2` [Latruncalin A, Latrunculin A], which “temporal course of the Fourier coefficients” value [1] is on record?
**A.** Its value is “a rise in the Fourier coefficients, which subside again with increasing exposure time”.
